Results reported in ChEMBL document CHEMBL5331067, “Disubstituted pyrimidine-5-carboxamide derivatives as novel HIV-1 NNRTIs: Crystallographic overlay-based molecular design, synthesis, and biological evaluation” (Eur J Med Chem, 2023).

Tests used:
[1] = (§1) Fold resistance, ratio of EC50 for antiviral activity against NNRTI-resistant HIV-1 harboring Y188L mutant infected in human MT4 cells assessed as virus-induced cytopathicity to EC50 for antiviral activity against HIV-1 IIIB infected in human MT4 cells assessed as reduction in virus induced cytopathic effect; format: functional
[2] = as §1, with “L100I” for “Y188L”; format: functional
[3] = as §1, with “F227L/V106A double” for “Y188L”, “RES056” for “IIIB”; format: functional
[4] = test system: Human immunodeficiency virus 1; assay: Antiviral activity against NNRTI-resistant HIV-1 harboring K103N mutant infected in human MT4 cells assessed as virus-induced cytopathicity incubated for 5 days by MTT assay; format: functional, organism-based; settings: Human immunodeficiency virus 1, MT4, 120 h
[5] = Selectivity index, ratio of CC50 for cytotoxicity against human MT4 cells assessed as reduction in cell viability to EC50 for antiviral activity against NNRTI-resistant HIV-1 harboring Y188L mutant infected in human MT4 cells; format: toxicity, cell-based; settings: read-out: Ratio CC50/EC50
[6] = test system: Human immunodeficiency virus 1; assay: Antiviral activity against NNRTI-resistant HIV-1 harboring Y188L mutant infected in human MT4 cells assessed as virus-induced cytopathicity incubated for 5 days by MTT assay; format: functional, organism-based; settings: Human immunodeficiency virus 1, MT4, 120 h
[7] = test system: Human immunodeficiency virus 1; assay: Antiviral activity against NNRTI-resistant HIV-1 harboring Y181C mutant infected in human MT4 cells assessed as virus-induced cytopathicity incubated for 5 days by MTT assay; format: functional, organism-based; settings: Human immunodeficiency virus 1, MT4, 120 h
[8] = Selectivity index, ratio of CC50 for cytotoxicity against human MT4 cells assessed as reduction in cell viability to EC50 for antiviral activity against HIV-1 RES056 infected in human MT4 cells assessed as reduction in virus induced cytopathic effect; format: toxicity, cell-based; settings: read-out: Ratio CC50/EC50
[9] = Selectivity index, ratio of CC50 for cytotoxicity against human MT4 cells assessed as reduction in cell viability to EC50 for antiviral activity against NNRTI-resistant HIV-1 harboring Y181C mutant infected in human MT4 cells; format: toxicity, cell-based; settings: read-out: Ratio CC50/EC50
[10] = test system: Human immunodeficiency virus 1; assay: Antiviral activity against HIV-1 RES056 infected in human MT4 cells assessed as reduction in virus induced cytopathic effect incubated for 5 days by MTT assay; format: functional, organism-based; settings: Human immunodeficiency virus 1, RES056, MT4, 120 h
[11] = Cytotoxicity against human MT4 cells assessed as cell growth inhibition incubated for 5 days by MTT assay; format: toxicity, cell-based; settings: time 5 day
[12] = Selectivity index, ratio of CC50 for cytotoxicity against human MT4 cells assessed as reduction in cell viability to EC50 for antiviral activity against NNRTI-resistant HIV-1 harboring E138K mutant infected in human MT4 cells; format: toxicity, cell-based; settings: read-out: Ratio CC50/EC50
[13] = test system: Human immunodeficiency virus 1; assay: Antiviral activity against NNRTI-resistant HIV-1 harboring E138K mutant infected in human MT4 cells assessed as virus-induced cytopathicity incubated for 5 days by MTT assay; format: functional, organism-based; settings: Human immunodeficiency virus 1, MT4, 120 h
[14] = target: Human immunodeficiency virus type 1 reverse transcriptase (Human immunodeficiency virus 1, UniProt Q72547); assay: Inhibition of wild type HIV-1 reverse transcriptase assessed as reduction of biotin-dUTP incorporation into […] using ABTS as substrate incubated for 1 hrs by ELISA analysis
[15] = test system: Human immunodeficiency virus 1; assay: Antiviral activity against NNRTI-resistant HIV-1 harboring L100I mutant infected in human MT4 cells assessed as virus-induced cytopathicity incubated for 5 days by MTT assay; format: functional, organism-based; settings: Human immunodeficiency virus 1, MT4, 120 h
[16] = as §1, with “F227L/V106A double” for “Y188L”; format: functional
[17] = as §1, with “E138K” for “Y188L”; format: functional
[18] = test system: Human immunodeficiency virus 1; assay: Antiviral activity against NNRTI-resistant HIV-1 harboring F227L/V106A double mutant infected in human MT4 cells assessed as virus-induced cytopathicity incubated for 5 days by MTT assay; format: functional, organism-based; settings: Human immunodeficiency virus 1, MT4, 120 h
[19] = Selectivity index, ratio of CC50 for cytotoxicity against human MT4 cells assessed as reduction in cell viability to EC50 for antiviral activity against NNRTI-resistant HIV-1 harboring L100I mutant infected in human MT4 cells; format: toxicity, cell-based; settings: read-out: Ratio CC50/EC50
[20] = as §1, with “K103N” for “Y188L”; format: functional
[21] = Selectivity index, ratio of CC50 for cytotoxicity against human MT4 cells assessed as reduction in cell viability to EC50 for antiviral activity against NNRTI-resistant HIV-1 harboring F227L/V106A double mutant infected in human MT4 cells; format: toxicity, cell-based; settings: read-out: Ratio CC50/EC50
[22] = Selectivity index, ratio of CC50 for cytotoxicity against human MT4 cells assessed as reduction in cell viability to EC50 for antiviral activity against HIV-1 IIIB infected in human MT4 cells assessed as reduction in virus induced cytopathic effect; format: toxicity, cell-based; settings: read-out: Ratio CC50/EC50
[23] = Selectivity index, ratio of CC50 for cytotoxicity against human MT4 cells assessed as reduction in cell viability to EC50 for antiviral activity against NNRTI-resistant HIV-1 harboring K103N mutant infected in human MT4 cells; format: toxicity, cell-based; settings: read-out: Ratio CC50/EC50
[24] = as §1, with “Y181C” for “Y188L”; format: functional
[25] = test system: Human immunodeficiency virus 1; assay: Antiviral activity against HIV-1 IIIB infected in human MT4 cells assessed as reduction in virus induced cytopathic effect incubated for 5 days by MTT assay; format: functional, organism-based; settings: Human immunodeficiency virus 1, IIIB, MT4, 120 h

**Q.** Which results are given for Cc1cc(C#N)cc(C)c1Oc1nc(Nc2ccc(C#N)cc2)ncc1C(N)=O?
**A.** Ratio EC50 [1]: 16.9; Ratio EC50 [2]: 14.7; Ratio EC50 [3]: 785.5; EC50 [4]: 50 nM; selectivity ratio [5]: 167; EC50 [6]: 193 nM; EC50 [7]: 395 nM; selectivity ratio [8]: 4; selectivity ratio [9]: 82; EC50 [10]: 8960 nM; CC50 at 120 h [11]: 32200 nM; selectivity ratio [12]: 459; EC50 [13]: 70 nM; IC50 [14]: 196 nM; EC50 [15]: 168 nM; Ratio EC50 [16]: 223.3; Ratio EC50 [17]: 6.2; EC50 [18]: 2550 nM; selectivity ratio [19]: 192; Ratio EC50 [20]: 4.3; selectivity ratio [21]: 13; selectivity ratio [22]: 2820; selectivity ratio [23]: 650; Ratio EC50 [24]: 34.6; EC50 [25]: 11 nM

**Q.** Which “Ratio EC50” value [1] does the source give for Cc1cc(C#N)cc(C)c1Oc1nc(NC2CCN(Cc3ccc(S(C)(=O)=O)cc3)CC2)ncc1C(N)=O here?
**A.** 12.1

**Q.** What about the “Ratio EC50” value [2] of the same compound?
**A.** 1.9

**Q.** And the “Ratio EC50” value [3]?
**A.** 605.5

**Q.** What about the EC50 [4] of the same compound?
**A.** 5 nM

**Q.** And the selectivity ratio [5]?
**A.** > 3400

**Q.** And the EC50 [6]?
**A.** 69 nM

**Q.** And the EC50 [7]?
**A.** 34 nM

**Q.** And the selectivity ratio [8]?
**A.** > 68

**Q.** And the selectivity ratio [9]?
**A.** > 6790

**Q.** What about the EC50 [10] of the same compound?
**A.** 3450 nM

**Q.** And the CC50 at 120 h [11]?
**A.** > 234000 nM

**Q.** And the selectivity ratio [12]?
**A.** > 1560

**Q.** What about the EC50 [13] of the same compound?
**A.** 149 nM

**Q.** And the IC50 [14]?
**A.** 122 nM

**Q.** And the EC50 [15]?
**A.** 11 nM

**Q.** What about the “Ratio EC50” value [16] of the same compound?
**A.** 57.4

**Q.** What about the “Ratio EC50” value [17] of the same compound?
**A.** 26.2

**Q.** What about the EC50 [18] of the same compound?
**A.** 327 nM

**Q.** And the selectivity ratio [19]?
**A.** > 221

**Q.** And the “Ratio EC50” value [20]?
**A.** 0.9

**Q.** What about the selectivity ratio [21] of the same compound?
**A.** > 716

**Q.** What about the selectivity ratio [22] of the same compound?
**A.** > 41100

**Q.** And the selectivity ratio [23]?
**A.** > 4460

**Q.** What about the “Ratio EC50” value [24] of the same compound?
**A.** 6

**Q.** And the EC50 [25]?
**A.** 6 nM

**Q.** For Cc1cc(C#N)cc(C)c1Oc1nc(NC2CCN(Cc3ccc(S(N)(=O)=O)cc3)CC2)ncc1C(N)=O, which “Ratio EC50” value [1] is on record?
**A.** 5.1

**Q.** And the “Ratio EC50” value [2]?
**A.** 4.5

**Q.** What about the “Ratio EC50” value [3] of the same compound?
**A.** 132.9

**Q.** What about the EC50 [4] of the same compound?
**A.** 62 nM

**Q.** And the selectivity ratio [5]?
**A.** 847

**Q.** And the EC50 [6]?
**A.** 234 nM

**Q.** What about the EC50 [7] of the same compound?
**A.** 295 nM

**Q.** And the selectivity ratio [8]?
**A.** 32

**Q.** What about the selectivity ratio [9] of the same compound?
**A.** 671

**Q.** And the EC50 [10]?
**A.** 6120 nM

**Q.** And the CC50 at 120 h [11]?
**A.** 198000 nM

**Q.** What about the selectivity ratio [12] of the same compound?
**A.** 680

**Q.** And the EC50 [13]?
**A.** 291 nM

**Q.** And the IC50 [14]?
**A.** 163 nM

**Q.** And the EC50 [15]?
**A.** 209 nM

**Q.** What about the “Ratio EC50” value [16] of the same compound?
**A.** 9.5

**Q.** And the “Ratio EC50” value [17]?
**A.** 6.3

**Q.** What about the EC50 [18] of the same compound?
**A.** 439 nM

**Q.** And the selectivity ratio [19]?
**A.** 946

**Q.** What about the “Ratio EC50” value [20] of the same compound?
**A.** 1.3

**Q.** And the selectivity ratio [21]?
**A.** 451

**Q.** And the selectivity ratio [22]?
**A.** 4300

**Q.** And the selectivity ratio [23]?
**A.** 3180

**Q.** And the “Ratio EC50” value [24]?
**A.** 6.4

**Q.** And the EC50 [25]?
**A.** 46 nM

**Q.** With Cc1cc(C#N)cc(C)c1Oc1nc(NC2CCN(Cc3ccc(C(N)=O)cc3)CC2)ncc1C(N)=O as the compound, how does the “Ratio EC50” value [1] read?
**A.** 17.1

**Q.** What about the “Ratio EC50” value [2] of the same compound?
**A.** 1.6

**Q.** What about the “Ratio EC50” value [3] of the same compound?
**A.** 394.1

**Q.** And the EC50 [4]?
**A.** 45 nM

**Q.** What about the selectivity ratio [5] of the same compound?
**A.** > 324

**Q.** And the EC50 [6]?
**A.** 771 nM

**Q.** And the EC50 [7]?
**A.** 286 nM

**Q.** What about the selectivity ratio [8] of the same compound?
**A.** > 14

**Q.** And the selectivity ratio [9]?
**A.** > 876

**Q.** And the EC50 [10]?
**A.** 17800 nM

**Q.** And the CC50 at 120 h [11]?
**A.** > 250000 nM

**Q.** What about the selectivity ratio [12] of the same compound?
**A.** > 659

**Q.** What about the EC50 [13] of the same compound?
**A.** 380 nM

**Q.** And the IC50 [14]?
**A.** 158 nM

**Q.** And the EC50 [15]?
**A.** 73 nM

**Q.** What about the “Ratio EC50” value [16] of the same compound?
**A.** 100.3

**Q.** And the “Ratio EC50” value [17]?
**A.** 8.4

**Q.** What about the EC50 [18] of the same compound?
**A.** 4520 nM

**Q.** What about the selectivity ratio [19] of the same compound?
**A.** > 344

**Q.** And the “Ratio EC50” value [20]?
**A.** 1

**Q.** What about the selectivity ratio [21] of the same compound?
**A.** > 55

**Q.** What about the selectivity ratio [22] of the same compound?
**A.** > 5560

**Q.** And the selectivity ratio [23]?
**A.** > 5580

**Q.** What about the “Ratio EC50” value [24] of the same compound?
**A.** 6.3

**Q.** And the EC50 [25]?
**A.** 45 nM

**Q.** Which results are given for Cc1cc(C#N)cc(C)c1Oc1nc(Nc2ccc(C#N)c(F)c2)ncc1C(N)=O?
**A.** Ratio EC50 [1]: 9.4; Ratio EC50 [2]: 4.6; Ratio EC50 [3]: 663.7; EC50 [4]: 20 nM; selectivity ratio [5]: 345; EC50 [6]: 101 nM; EC50 [7]: 180 nM; selectivity ratio [8]: 5; selectivity ratio [9]: 194; EC50 [10]: 7190 nM; CC50 at 120 h [11]: 34900 nM; selectivity ratio [12]: 681; EC50 [13]: 51 nM; IC50 [14]: 170 nM; EC50 [15]: 50 nM; Ratio EC50 [16]: 287.6; Ratio EC50 [17]: 4.7; EC50 [18]: 3110 nM; selectivity ratio [19]: 698; Ratio EC50 [20]: 1.8; selectivity ratio [21]: 11; selectivity ratio [22]: 3230; selectivity ratio [23]: 1770; Ratio EC50 [24]: 16.6; EC50 [25]: 11 nM
